In paper PMC5559104, “Heat shock protein 90 localizes to the surface and augments virulence factors of Cryptococcus neoformans” (PLoS Neglected Tropical Diseases, 2017):

Key:
[1] = biological target: T1, CnHsp90 (heat shock protein 90) (Cryptococcus neoformans, UniProt J9VVA4); test: intrinsic tryptophan fluorescence quenching; also inhibits ATPase activity of the purified protein (IC50 […] at […]°C, […] at […]°C); assay type: binding
T1 construct: gene CNAG_06150; recombinant CnHsp90 6x-His tag fusion protein (2157 bp amplified product in pRSET-A)
T1 sequence (J9VVA4 entry or part of it): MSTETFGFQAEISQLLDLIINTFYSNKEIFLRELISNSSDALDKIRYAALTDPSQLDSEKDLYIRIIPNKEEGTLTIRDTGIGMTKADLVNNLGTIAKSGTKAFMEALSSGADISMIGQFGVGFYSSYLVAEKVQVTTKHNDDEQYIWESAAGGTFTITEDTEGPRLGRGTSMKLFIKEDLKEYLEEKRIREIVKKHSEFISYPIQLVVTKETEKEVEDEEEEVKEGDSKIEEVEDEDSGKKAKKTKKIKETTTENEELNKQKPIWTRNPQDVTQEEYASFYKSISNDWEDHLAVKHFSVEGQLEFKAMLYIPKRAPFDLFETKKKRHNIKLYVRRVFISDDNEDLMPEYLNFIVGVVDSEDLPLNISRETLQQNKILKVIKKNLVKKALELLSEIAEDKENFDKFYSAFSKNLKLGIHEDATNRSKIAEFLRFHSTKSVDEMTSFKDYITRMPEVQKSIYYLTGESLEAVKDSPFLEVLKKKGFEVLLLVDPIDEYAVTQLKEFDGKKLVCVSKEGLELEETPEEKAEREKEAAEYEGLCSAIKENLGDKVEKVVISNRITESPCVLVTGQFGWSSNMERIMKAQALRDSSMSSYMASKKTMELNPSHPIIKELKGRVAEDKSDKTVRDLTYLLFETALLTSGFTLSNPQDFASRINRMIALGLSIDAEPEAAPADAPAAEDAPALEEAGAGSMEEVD

[2] = biological target: T1, CnHsp90 (heat shock protein 90); test: intrinsic tryptophan fluorescence quenching; also hydrolysis of γ-32P-ATP (Km […] at […]°C, […] at […]°C); assay type: binding

Row | Compound | Kd [1] [µM] | Kd [2] [µM]
1 | C=CCNC1=C2C[C@@H](C)C[C@H](OC)[C@H](O)[C@@H](C)/C=C(\C)[C@H](OC(N)=O)[C@@H](OC)/C=C\C=C(/C)C(=O)NC(=CC1=O)C2=O [17-AAG] | 12.9 | –
2 | Nc1ncnc2c1ncn2[C@@H]1O[C@H](COP(=O)(O)OP(=O)(O)OP(=O)(O)O)[C@@H](O)[C@H]1O [ATP] | – | 497
